Laboratory results reported in US20050113318A1, “Combination of dehydroepiandrosterone or dehydroepiandrosterone-sulfate with a beta-agonist bronchodilator for treatment of asthma or chronic obstructive pulmonary disease” (priority 2003, published 2005).
Values joined by “and” are separate entries in the source; they are usually repeats but may differ in a detail not shown here. Equal values may be shown once.

Legend:
[1] = Particle size of DHEA-S powders (laser diffraction, light microscope); format: physicochemical; details: for mean particle size: spray dried, two batches
Description: Approximately 1 g sample was passed through the jet mill, once, and approximately 2 g sample were passed through the jet mill twice. […] The resulting solution was sonicated for 3 minutes and appeared fully dispersed. The dispersed solutions were tested on a Malvern Mastersizer X with a small volume sampler (SVS) attachment. One sample of dispersed material was tested 5 times. The median particle size or D (v, 0.5) of unmilled material was 52.56 μm and the % RSD (relative standard deviation) was 7.61 for the 5 values. The D (v, 0.5) for a single pass through the jet mill was 3.90 μm and the % RSD was 1.27, and the D (v, 0.5) from a double pass through the jet mill 3.25 μm and the % RSD was 3.10.
The solution was spray-dried with a B-191 Mini Spray-Drier (Buchi, Flawil, Switzerland) with an inlet temperature of 55° C., outlet temperature of 40° C., at 100% aspirator, at 10% pump, nitrogen flow at 40 mbar and spray flow at 600 units. The spray-dried product was suspended in hexane and Span85 surfactant added to reduce agglomeration. The dispersions were sonicated with cooling for 3-5 minutes for complete dispersion and the dispersed solutions tested on a Malvern Mastersizer X with a Small Volume Sampler (SVS) attachment. […] Visual examination by light microscope of the dispersions of each batch confirmed that spray drying produced small respirable size particles. The mean particle size was 2.4 μm and 2.0 μm for each batch, respectively.
Surface area is determined using five point BET analyses are performed with nitrogen as the adsorbing gas (P/Po=0.05 to 0.30) using a Micromeritics TriStar surface area analyzer. Particle size distributions are measured by laser diffraction using a Micromeritics Saturn Digisizer where the particles are suspended in mineral oil th sodium dioctyl sodium sulfosuccinate as a dispersing agent. Drug substance water content is measured by Karl Fischer titration (Schott Titroline KF). Pure water is used as the standard and all relative standard deviations for triplicates are less than 1%. Powder is added directly to the titration media.

[2] = Respirable dose studies, Andersen cascade impactor; format: physicochemical; details: 90 L/min
Description: The respirable dose (respirable fraction) studies were performed using a standard sampler cascade impactor (Andersen), consisting of an inlet cone (an impactor pre-separator was substituted here), 9 stages, 8 collection plates, and a backup filter within 8 aluminum stages held together by 3 spring clamps and gasket O-ring seals, where each impactor stage contains multiple precision drilled orifices. When air is drawn through the sampler, multiple jets of air in each stage direct any airborne particles toward the surface of the collection plate for that stage. The size of the jets is constant for each stage, but is smaller in each succeeding stage. Whether a particle is impacted on any given stage depends upon its aerodynamic diameter. The range of particle sizes collected on each stage depends upon on the jet velocity of the stage, and the cut-off point of the previous stage. Any particle not collected on the first stage follows the air stream around the edge of the plate to the next stage, where it is either impacted or passed on to the succeeding stage, and so on, until the velocity of the jet is sufficient for impaction. To prevent particle bounce during the cascade impactor test, the individual impactor plates were coated with a hexane-grease (high vacuum) solution (100:1 ratio). As noted above, the particle size cut-off points on the impactor plates changed at different airflow rates. […] The set-up recommended by the United States Phamacopeia for testing dry powder inhalers consists of a mouthpiece adapter (silicone in this case) attached to a glass throat (modified 50 ml round-bottom flask) and a glass distal pharynx (induction port) leading top the pre-separator and Andersen sampler. The pre-separator sample includes washings from the mouthpiece adaptor, glass throat, distal glass pharynx and pre-separator. 5 ml acetonitrile:water (1:1 ratio) solvent was placed in the pre-separator before performing the cascade impactor experiment, that were performed in duplicate with 3 different dry powder inhaler devices and at 3 airflow rates, 30, 60 and 90 L/min. The drug collected on the cascade impactor plates were assayed by the HPLC, and a drug mass balance was performed for each Diskhaler and multi-dose cascade impactor experiment consisting of determining the amount of drug left in the blister, the amount of drug remaining in the device (Diskhaler only), the non-respirable amount of the dose retained on the silicone rubber mouth piece adaptor, glass throat, glass distal pharynx and pre-separator, all combined into one sample, and the respirable dose, i.e. Stage 2 through filter impactor plates for airflow rates of 30 and 60 L/min and Stages 1 through filter impactor plates for 90 L/min experiments.
The cascade impactor experiments were conducted as described in Example 3. Four cascade impactor experiments were done, three with a IDL multi-dose device and one with a Diskhaler, all at 90 L/min. […] However, the % respirable dose was still low. This was likely the result of moisture absorption of the anhydrous form.

[3] = Multi-dose, oven dried drug for 80 minutes
[4] = Multi-dose, oven dried drug for 20 hours

Structure (SMILES): C[C@]12CC[C@H](OS(=O)(=O)[O-])CC1=CC[C@@H]1[C@@H]2CC[C@]2(C)C(=O)CC[C@@H]12.[Na+] [Anhydrous DHEA-S]
- median particle size D (v, 0.5) ([1]; double pass through the jet mill): 3.25 μm
- median particle size D (v, 0.5) ([1]; single pass through the jet mill): 3.90 μm
- mean particle size ([1]; Malvern Mastersizer X): 5.07±0.70 μm and 6.66±0.91 μm
- mean particle size ([1]; visual examination by light microscope): 2.4 μm and 2.0 μm
- median particle size D (v, 0.5) ([1]; unmilled material, Malvern Mastersizer X): 52.56 μm
- respirable dose of spray-dried compared to micronized anhydrous DHEA-S [2]: two-fold increase
- Blister [2, 3]: 2.8%
- Mass Balance [2, 3]: 100.0%
- Preseparator [2, 3]: 78.7%
- Respirable Dose [2, 3]: 4.6%
- Device ([2]; Multi-dose, oven dried drug for 80 minutes, by difference): 13.9 *^a %
- Blister [2, 4]: 5.0%
- Mass Balance [2, 4]: 100.0%
- Preseparator [2, 4]: 55.9%
- Respirable Dose [2, 4]: 1.2%
- Device ([2]; Multi-dose, oven dried drug for 20 hours, by difference): 37.9 *^a %
- Blister ([2]; jet-milled drug, Diskhaler): 6.6% and 10.1%
- Device ([2]; jet-milled drug, Diskhaler): 22.1% and 13.3%
- Mass Balance ([2]; jet-milled drug, Diskhaler): 104.3% and 86.0%
- Preseparator ([2]; jet-milled drug, Diskhaler): 72.7% and 60.2%
- Respirable Dose ([2]; jet-milled drug, Diskhaler): 2.9% and 2.4%
- Blister ([2]; jet-milled drug, Multi-dose): 3.8% and 3.9%
- Mass Balance ([2]; jet-milled drug, Multi-dose): 100.0%
- Preseparator ([2]; jet-milled drug, Multi-dose): 73.3% and 65.8%
- Respirable Dose ([2]; jet-milled drug, Multi-dose): 3.6% and 3.8%
- Device ([2]; jet-milled drug, Multi-dose, retention obtained by difference): 19.3 *^a % and 26.5 *^a %
- Blisters ([2]; spray-dried drug, Diskhaler): 29.0%
- Device ([2]; spray-dried drug, Diskhaler): 11.2%
- Preseparator ([2]; spray-dried drug, Diskhaler): 56.8%
- Respirable Dose ([2]; spray-dried drug, Diskhaler): 5.6%
